According to ChEMBL document CHEMBL5291721, “A preclinical secondary pharmacology resource illuminates target-adverse drug reaction associations of marketed drugs” (Nat Commun, 2023):

Tests used:
[1] = biological target: T1, Alpha-2A adrenergic receptor (Homo sapiens, UniProt P08913); format: functional, cell-based
T1 sequence (P08913 whole entry): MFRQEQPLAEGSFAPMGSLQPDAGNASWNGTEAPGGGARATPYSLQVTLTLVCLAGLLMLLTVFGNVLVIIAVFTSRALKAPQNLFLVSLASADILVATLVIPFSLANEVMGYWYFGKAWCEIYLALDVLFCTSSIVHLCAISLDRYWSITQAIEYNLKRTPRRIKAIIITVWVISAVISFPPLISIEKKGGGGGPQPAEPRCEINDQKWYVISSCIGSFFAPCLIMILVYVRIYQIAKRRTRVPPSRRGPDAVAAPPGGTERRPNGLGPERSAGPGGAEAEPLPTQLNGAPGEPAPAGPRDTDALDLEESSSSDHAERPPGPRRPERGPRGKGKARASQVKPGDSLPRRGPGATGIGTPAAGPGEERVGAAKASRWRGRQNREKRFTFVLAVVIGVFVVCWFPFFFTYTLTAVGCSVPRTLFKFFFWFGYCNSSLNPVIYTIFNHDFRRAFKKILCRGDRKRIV

[2] = biological target: T2, Muscarinic acetylcholine receptor M1 (Homo sapiens, UniProt P11229); format: functional, cell-based
T2 sequence (P11229 whole entry): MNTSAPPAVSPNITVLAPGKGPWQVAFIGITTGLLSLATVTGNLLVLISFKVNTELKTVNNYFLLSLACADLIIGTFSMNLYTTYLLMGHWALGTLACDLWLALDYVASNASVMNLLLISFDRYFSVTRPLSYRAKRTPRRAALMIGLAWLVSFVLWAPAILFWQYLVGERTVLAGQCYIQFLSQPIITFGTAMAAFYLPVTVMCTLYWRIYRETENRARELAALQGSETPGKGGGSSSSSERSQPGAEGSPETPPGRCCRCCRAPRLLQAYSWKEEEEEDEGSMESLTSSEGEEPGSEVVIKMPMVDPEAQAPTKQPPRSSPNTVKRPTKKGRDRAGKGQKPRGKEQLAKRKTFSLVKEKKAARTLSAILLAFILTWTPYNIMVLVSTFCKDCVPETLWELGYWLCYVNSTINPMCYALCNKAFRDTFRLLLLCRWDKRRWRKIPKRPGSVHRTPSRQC

[3] = biological target: T3, 5-hydroxytryptamine receptor 2C (Homo sapiens, UniProt P28335)
T3 sequence (P28335 whole entry): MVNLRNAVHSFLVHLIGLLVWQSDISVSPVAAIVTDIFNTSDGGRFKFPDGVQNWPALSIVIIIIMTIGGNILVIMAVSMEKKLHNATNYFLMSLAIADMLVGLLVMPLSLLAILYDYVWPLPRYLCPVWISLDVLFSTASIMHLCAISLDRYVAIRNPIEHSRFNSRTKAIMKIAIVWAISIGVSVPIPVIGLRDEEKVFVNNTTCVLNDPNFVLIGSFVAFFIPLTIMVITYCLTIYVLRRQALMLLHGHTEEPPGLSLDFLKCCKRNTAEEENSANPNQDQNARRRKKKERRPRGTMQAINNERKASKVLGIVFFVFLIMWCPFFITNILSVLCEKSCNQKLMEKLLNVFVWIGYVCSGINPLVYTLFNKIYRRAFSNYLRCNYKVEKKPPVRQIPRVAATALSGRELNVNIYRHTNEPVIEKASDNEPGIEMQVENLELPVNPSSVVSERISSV

[4] = biological target: T4, Alpha-1A adrenergic receptor (Homo sapiens, UniProt P35348); format: functional, cell-based
T4 sequence (P35348 whole entry): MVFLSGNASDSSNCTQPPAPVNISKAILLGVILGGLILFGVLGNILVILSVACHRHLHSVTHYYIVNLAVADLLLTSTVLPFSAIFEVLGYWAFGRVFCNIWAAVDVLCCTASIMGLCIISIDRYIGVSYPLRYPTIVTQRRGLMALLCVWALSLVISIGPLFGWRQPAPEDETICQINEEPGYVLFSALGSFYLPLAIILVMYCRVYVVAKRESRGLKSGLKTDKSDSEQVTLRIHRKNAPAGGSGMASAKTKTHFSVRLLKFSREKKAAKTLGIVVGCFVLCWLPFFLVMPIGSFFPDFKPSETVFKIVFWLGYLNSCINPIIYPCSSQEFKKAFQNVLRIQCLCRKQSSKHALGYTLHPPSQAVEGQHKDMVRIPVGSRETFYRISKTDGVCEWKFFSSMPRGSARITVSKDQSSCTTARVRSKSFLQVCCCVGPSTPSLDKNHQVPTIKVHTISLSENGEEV

[5] = biological target: T4, Alpha-1A adrenergic receptor; format: functional, cell-based; remark: listed apart in the source
Endothelin-1 receptor = biological target: T5, Endothelin-1 receptor (Homo sapiens, UniProt P25101)
T5 sequence (P25101 whole entry): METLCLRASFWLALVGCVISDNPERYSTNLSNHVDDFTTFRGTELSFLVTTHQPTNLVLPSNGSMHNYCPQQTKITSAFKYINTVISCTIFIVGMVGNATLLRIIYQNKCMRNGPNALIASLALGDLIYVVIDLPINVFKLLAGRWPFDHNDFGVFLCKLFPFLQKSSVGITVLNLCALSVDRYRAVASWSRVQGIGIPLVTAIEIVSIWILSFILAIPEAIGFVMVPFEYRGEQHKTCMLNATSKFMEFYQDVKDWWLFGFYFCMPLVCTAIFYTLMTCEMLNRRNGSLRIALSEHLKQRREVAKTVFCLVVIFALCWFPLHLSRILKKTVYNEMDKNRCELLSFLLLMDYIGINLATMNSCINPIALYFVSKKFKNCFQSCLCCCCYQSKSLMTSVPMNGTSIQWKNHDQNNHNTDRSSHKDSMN

[6] = biological target: T6, 5-hydroxytryptamine receptor 1A (Homo sapiens, UniProt P08908); format: functional, cell-based
T6 sequence (P08908 whole entry): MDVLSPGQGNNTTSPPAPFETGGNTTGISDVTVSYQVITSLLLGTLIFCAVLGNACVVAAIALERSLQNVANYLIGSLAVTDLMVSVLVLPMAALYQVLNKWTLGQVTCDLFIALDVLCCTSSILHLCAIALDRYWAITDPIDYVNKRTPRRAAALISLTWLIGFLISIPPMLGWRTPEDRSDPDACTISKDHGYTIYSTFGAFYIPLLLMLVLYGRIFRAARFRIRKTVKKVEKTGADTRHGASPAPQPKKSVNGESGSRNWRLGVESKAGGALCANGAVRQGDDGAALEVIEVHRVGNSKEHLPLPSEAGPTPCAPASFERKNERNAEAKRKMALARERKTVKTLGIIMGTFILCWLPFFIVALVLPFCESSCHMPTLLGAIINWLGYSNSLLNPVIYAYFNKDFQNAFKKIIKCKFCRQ
Note: assay procedure not described here.

| Structure (SMILES) | AC50 [1] | AC50 [2] | AC50 [3] | AC50 [4] | AC50 [5] | AC50 (Endothelin-1 receptor) | AC50 [6] |
| --- | --- | --- | --- | --- | --- | --- | --- |
| CC(=O)O[C@]1(C(C)=O)CC[C@H]2[C@@H]3C=C(C)C4=CC(=O)CC[C@@H]4[C@H]3CC[C@@]21C [NOMEGESTROL ACETATE] | > 30 µM | > 30 µM | > 30 µM | > 30 µM | > 30 µM | – | – |
| CCCN(CCC)C(=O)Cc1c(-c2ccc(Cl)cc2)nc2ccc(Cl)cn12 [ALPIDEM] | > 30 µM | > 30 µM | > 30 µM | – | > 30 µM | > 10 µM | – |
| COc1cc2nccc(Oc3ccc(NC(=O)C4(C(=O)Nc5ccc(F)cc5)CC4)cc3)c2cc1OC [CABOZANTINIB] | > 30 µM | > 30 µM | > 30 µM | > 30 µM | > 30 µM | > 30 µM | > 30 µM |
| C[C@@H]1C[C@H]2[C@@H]3CCC4=CC(=O)C=C[C@]4(C)[C@@]3(Cl)[C@@H](O)C[C@]2(C)[C@@]1(OC(=O)c1ccco1)C(=O)CCl [MOMETASONE FUROATE] | – | > 30 µM | – | – | > 30 µM | – | – |
| CC[C@H](C)C[C@H](C)CCCCCCCCC(=O)N[C@H]1C[C@@H](O)[C@@H](NCCN)NC(=O)[C@@H]2[C@@H](O)CCN2C(=O)[C@H]([C@H](O)CCN)NC(=O)[C@H]([C@H](O)[C@@H](O)c2ccc(O)cc2)NC(=O)[C@@H]2C[C@@H](O)CN2C(=O)[C@H]([C@@H](C)O)NC1=O [CASPOFUNGIN] | – | > 30 µM | – | – | > 30 µM | – | – |
